Experimental data reported in patent US8722682B2, “Sulfated benzimidazolone derivatives having mixed serotonin receptor affinity” (Sprout Pharmaceuticals, Inc., priority 2006, dated 2014).

How the values were obtained:
5-HT1A receptor = molecular target: T1, 5-HT1A receptor (Homo sapiens, UniProt P08908); experiment: 5-HT1A receptor binding, [3H]-8-OH-DPAT displacement; settings: human recombinant CHO-K1 cells, [3H]-8-OH-DPAT 1.5 nM
T1 construct: expressed in transfected cells; host or cells: CHO-K1
T1 sequence (P08908 1-422): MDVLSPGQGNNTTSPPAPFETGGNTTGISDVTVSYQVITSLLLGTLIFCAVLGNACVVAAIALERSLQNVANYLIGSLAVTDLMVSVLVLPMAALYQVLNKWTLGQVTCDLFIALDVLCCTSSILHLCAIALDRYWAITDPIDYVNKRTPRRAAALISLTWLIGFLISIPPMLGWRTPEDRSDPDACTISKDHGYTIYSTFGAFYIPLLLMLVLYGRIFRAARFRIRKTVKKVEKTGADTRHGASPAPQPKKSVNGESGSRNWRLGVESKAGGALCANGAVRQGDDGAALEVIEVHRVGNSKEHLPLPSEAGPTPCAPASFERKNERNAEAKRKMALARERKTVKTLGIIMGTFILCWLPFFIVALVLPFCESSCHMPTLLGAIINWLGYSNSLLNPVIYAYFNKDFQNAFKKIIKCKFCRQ
Protocol: (§1) Binding studies can be carried out to determine the affinity of the compounds for 5-HT1A and 5-HT2A receptors
Human recombinant CHO-K1 cells are used. Displacement experiments can be performed by incubating the cells in 50 mM Tris-HCL, pH 7.4, 0.1% ascorbic acid, 0.5 mM EDTA, 10 mM MgSo4 and in the presence of [^3H]-8-OH-DPAT (1.5 nM) at 27° C. for 60 min. Non specific binding was determined in the presence of 10 μM mertergoline.
The test compounds dissolved in DMSO, along with the positive control compound metergoline are tested over 10-log unit concentrations for their ability to compete for [^3H]8-OH-DPAT binding (May J A, et al., J Pharmacol Exp Ther. 306(1):301, 2003. Martin G R and Humphrey P P A Neuropharmacol. 33:261, 1994). […] The radioactivity is counted on a β-counter, and the data are analyzed by a nonlinear, iterative, curve-fitting computer program.
Where presented, IC50 values are determined by a non-linear, least squares regression analysis using Data Analysis Toolboxä (MDL Information Systems, San Leandro, Calif., USA). Where inhibition constants (Ki) are presented, the Ki values are calculated using the equation of Cheng and Prusoff (Cheng, Y., Prusoff, W. H., Biochem. Pharmacol. 22:3099-3108, 1973) using the observed IC50 of the tested compound, the concentration of radioligand employed in the assay, and the historical values for the Ki of the ligand).

5-HT2A receptor = molecular target: T2, 5-HT2A receptor (Homo sapiens, UniProt P28223); experiment: 5-HT2A receptor binding, [3H]-Ketanserin displacement; settings: human recombinant CHO-K1 cells, [3H]-Ketanserin 0.5 nM
T2 construct: expressed in transfected cells; host or cells: CHO-K1
Protocol: as §1
Human recombinant CHO-K1 cells can be used. Displacement experiments are performed by incubating the cells in 50 mM Tris-HCL, pH 7.7 in the presence of [^3H]-Ketanserin (0.5 nM) at 25° C. for 60 min. Non specific binding was determined in the presence of 1 μM Mianserin.
The test compounds, along with the positive control compound ketanserin are tested over 10-log unit concentrations for their ability to compete for [^3H]-Ketanserin (Saucier C and Albert P R. J. Neurochem. 68:1998, 1997. Bonhaus D W et al., Br J Pharmacol. 115:622, 1995). The assays are terminated by rapid vacuum filtration over glass fiber filters. The radioactivity is counted on a β-counter, and the data are analyzed by a nonlinear, iterative, curve-fitting computer program. Where presented, IC50 values are determined by a non-linear, least squares regression analysis using Data Analysis Toolboxä (MDL Information Systems, San Leandro, Calif., USA). Where inhibition constants (Ki) are presented, the Ki values are calculated using the equation of Cheng and Prusoff (Cheng, Y., Prusoff, W. H., Biochem. Pharmacol. 22:3099-3108, 1973) using the observed IC50 of the tested compound, the concentration of radioligand employed in the assay, and the historical values for the Ki of the ligand).

T2 sequence (P28223 whole entry): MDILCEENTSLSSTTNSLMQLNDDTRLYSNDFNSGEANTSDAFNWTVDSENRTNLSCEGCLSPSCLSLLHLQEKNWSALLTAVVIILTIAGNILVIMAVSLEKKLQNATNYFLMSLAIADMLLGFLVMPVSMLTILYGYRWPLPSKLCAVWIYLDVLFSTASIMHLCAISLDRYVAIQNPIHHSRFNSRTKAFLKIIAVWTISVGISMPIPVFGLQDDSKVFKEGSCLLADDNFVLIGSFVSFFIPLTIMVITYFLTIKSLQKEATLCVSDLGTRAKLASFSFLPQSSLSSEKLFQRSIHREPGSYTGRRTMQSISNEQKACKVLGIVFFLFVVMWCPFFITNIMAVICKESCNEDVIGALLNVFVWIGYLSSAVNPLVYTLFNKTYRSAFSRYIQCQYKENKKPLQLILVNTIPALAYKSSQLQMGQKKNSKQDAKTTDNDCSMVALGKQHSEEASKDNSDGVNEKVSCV

SMILES: O=c1[nH]c2ccc(OS(=O)(=O)O)cc2n1CCN1CCN(c2cccc(C(F)(F)F)c2)CC1 [I(b), {2-oxo-3-{2-[4-(3-trifluoromethyl-phenyl)-piperazin-1-yl]-ethyl}-2,3-dihydro-1H-benzimidazol-5-yl}mono sulfuric acid ester]
- Ki (5-HT1A receptor): 808 nM
- Ki (5-HT2A receptor): 207 nM
